± gives the expanded uncertainty stated by the source.
Tests used:
[1] = xn = mol fraction of the nth substance listed; conditions: 101 kPa, Liquid; for speed of sound: Linear variable-path acoustic interferometer; for mass density: Pycnometric method
[2] = 101 kPa, Liquid; for speed of sound: Linear variable-path acoustic interferometer; for mass density: Pycnometric method

Nc1ccccc1Cl [2-chlorobenzeneamine] + C1CCOC1
[1]
Conditions	mass density, 303.15 K [kg/m3]	mass density, 313.15 K [kg/m3]	mass density, 323.15 K [kg/m3]	speed of sound, 303.15 K [m/s]	speed of sound, 313.15 K [m/s]	speed of sound, 323.15 K [m/s]
x2 = 0	1202.7 ± 0.4	1193 ± 0.4	1183.3 ± 0.4	1470 ± 3	1438 ± 3	1402 ± 3
x2 = 0.0695	1187.6 ± 0.4	1177.4 ± 0.4	1167.9 ± 0.4	1461 ± 3	1427 ± 3	1395 ± 3
x2 = 0.1543	1167.6 ± 0.4	1157.7 ± 0.4	1148.6 ± 0.4	1450 ± 3	1415 ± 3	1383 ± 3
x2 = 0.2423	1146 ± 0.4	1136.3 ± 0.4	1127 ± 0.4	1436 ± 3	1401 ± 3	1369 ± 3
x2 = 0.3275	1124.2 ± 0.4	1114.5 ± 0.4	1105 ± 0.4	1422 ± 3	1386 ± 3	1353 ± 3
x2 = 0.4213	1098.7 ± 0.4	1088.7 ± 0.4	1079.1 ± 0.4	1404 ± 3	1367 ± 3	1333 ± 3
x2 = 0.5259	1067.6 ± 0.4	1057.4 ± 0.4	1047.5 ± 0.4	1383 ± 3	1344 ± 3	1308 ± 2
x2 = 0.6325	1032 ± 0.4	1021.8 ± 0.4	1012.2 ± 0.4	1359 ± 3	1319 ± 2	1281 ± 2
x2 = 0.744	990.1 ± 0.4	980.1 ± 0.4	971 ± 0.4	1331 ± 3	1289 ± 2	1250 ± 2
x2 = 0.8663	938.4 ± 0.3	928.5 ± 0.4	920 ± 0.4	1296 ± 2	1252 ± 2	1212 ± 2

CC(C)OC(C)C [diisopropyl ether]
[2]
Conditions	mass density [kg/m3]	speed of sound [m/s]
303.15 K	712.9 ± 0.3	976 ± 2
313.15 K	702.9 ± 0.3	932 ± 2
323.15 K	691.9 ± 0.3	889 ± 2

C1CCOC1 [tetrahydrofuran]
[2]
Conditions	mass density [kg/m3]	speed of sound [m/s]
303.15 K	876.9 ± 0.3	1254 ± 2
313.15 K	865.7 ± 0.3	1207 ± 2
323.15 K	854.8 ± 0.3	1165 ± 2

Nc1ccccc1Cl [2-chlorobenzeneamine]
[2]
Conditions	mass density [kg/m3]	speed of sound [m/s]
303.15 K	1202.7 ± 0.4	1470 ± 3
313.15 K	1193 ± 0.4	1438 ± 3
323.15 K	1183.3 ± 0.4	1402 ± 3

Nc1cccc(Cl)c1 [3-chlorobenzenamine] + C1CCOC1
[1]
Conditions	mass density, 303.15 K [kg/m3]	mass density, 313.15 K [kg/m3]	mass density, 323.15 K [kg/m3]	speed of sound, 303.15 K [m/s]	speed of sound, 313.15 K [m/s]	speed of sound, 323.15 K [m/s]
x2 = 0	1205.3 ± 0.4	1196 ± 0.4	1186.6 ± 0.4	1517 ± 3	1486 ± 3	1452 ± 3
x2 = 0.0728	1189.4 ± 0.4	1180.6 ± 0.4	1171.5 ± 0.4	1500 ± 3	1468 ± 3	1436 ± 3
x2 = 0.1321	1175.7 ± 0.4	1167.1 ± 0.4	1157.9 ± 0.4	1487 ± 3	1455 ± 3	1424 ± 3
x2 = 0.2389	1149.7 ± 0.4	1140.6 ± 0.4	1131.3 ± 0.4	1465 ± 3	1432 ± 3	1400 ± 3
x2 = 0.3272	1126.8 ± 0.4	1117 ± 0.4	1107.4 ± 0.4	1446 ± 3	1412 ± 3	1380 ± 3
x2 = 0.4116	1102.9 ± 0.4	1093.2 ± 0.4	1083.3 ± 0.4	1427 ± 3	1392 ± 3	1360 ± 3
x2 = 0.5161	1071.3 ± 0.4	1061.4 ± 0.4	1051.5 ± 0.4	1403 ± 3	1366 ± 3	1333 ± 3
x2 = 0.6297	1033.5 ± 0.4	1023.9 ± 0.4	1014.3 ± 0.4	1373 ± 3	1336 ± 3	1301 ± 2
x2 = 0.7419	992 ± 0.4	982.7 ± 0.4	973.7 ± 0.4	1341 ± 3	1302 ± 2	1266 ± 2
x2 = 0.8633	941.6 ± 0.3	932.3 ± 0.4	923.4 ± 0.4	1302 ± 2	1260 ± 2	1222 ± 2
